In PubChem BioAssay AID1919004 (Molecular Pharmacology Branch, DTP, NCI, 2023):

Test system: 883617-216-R-J1-PDC complex spheroids, growth, % test/control
Experiment: Anticancer human tumor 883617-216-R-J1-PDC patient-derived bladder carcinoma cell line growth inhibition [AhR]
Conditions: for IC50: curve of first compound; for viability, T/C: stronger effect = lower value
Procedure, shortened: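 Complex tumor spheroids co-cultured with HUVEC and human MSC stroma; AhR antagonists tested in combination with standard-of-care and investigational agents. Top concentration at or near clinical Cmax (else 10 microM), half-log dilutions; growth expressed as percent test/control.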

[1] = second compound 0.1 µM, first compound 0.00949 µM
[2] = second compound 0.1 µM, first compound 0.03 µM
[3] = second compound 0.1 µM, first compound 0.0949 µM
[4] = second compound 0.1 µM, first compound 0.3 µM
[5] = second compound 0.1 µM, first compound 0.949 µM
[6] = second compound 0.1 µM, first compound 3 µM
[7] = second compound 0.316 µM, first compound 0.00949 µM
[8] = second compound 0.316 µM, first compound 0.03 µM
[9] = second compound 0.316 µM, first compound 0.0949 µM
[10] = second compound 0.316 µM, first compound 0.3 µM
[11] = second compound 0.316 µM, first compound 0.949 µM
[12] = second compound 0.316 µM, first compound 3 µM
[13] = second compound 1 µM, first compound 0.00949 µM
[14] = second compound 1 µM, first compound 0.03 µM
[15] = second compound 1 µM, first compound 0.0949 µM
[16] = second compound 1 µM, first compound 0.3 µM
[17] = second compound 1 µM, first compound 0.949 µM
[18] = second compound 1 µM, first compound 3 µM
[19] = second compound 3.16 µM, first compound 0.00949 µM
[20] = second compound 3.16 µM, first compound 0.03 µM
[21] = second compound 3.16 µM, first compound 0.0949 µM
[22] = second compound 3.16 µM, first compound 0.3 µM
[23] = second compound 3.16 µM, first compound 0.949 µM
[24] = second compound 3.16 µM, first compound 3 µM
[25] = second compound 10 µM, first compound 0.00949 µM
[26] = second compound 10 µM, first compound 0.03 µM
[27] = second compound 10 µM, first compound 0.0949 µM
[28] = second compound 10 µM, first compound 0.3 µM
[29] = second compound 10 µM, first compound 0.949 µM
[30] = second compound 10 µM, first compound 3 µM
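Note: exposure lasted 7 days after dosing on day 3 of spheroid growth.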

Row | Compound | IC50 (second compound 0.1 µM) [nM] | IC50 (second compound 0.316 µM) [nM] | IC50 (second compound 1 µM) [nM] | IC50 (second compound 3.16 µM) [nM] | IC50 (second compound 10 µM) [nM] | viability, T/C [1] [%] | viability, T/C [2] [%] | viability, T/C [3] [%] | viability, T/C [4] [%] | viability, T/C [7] [%] | viability, T/C [8] [%] | viability, T/C [9] [%] | viability, T/C [10] [%] | viability, T/C [13] [%] | viability, T/C [14] [%] | viability, T/C [15] [%] | viability, T/C [16] [%] | viability, T/C [19] [%] | viability, T/C [20] [%] | viability, T/C [21] [%] | further results
1 | CCN(c1cc(-c2ccc(CN3CCOCC3)cc2)cc(C(=O)NCc2c(C)cc(C)[nH]c2=O)c1C)C1CCOCC1 + CC(CO)NC(=O)c1cc(-c2ccc(Cl)cc2)nn(-c2cnn(C)c2)c1=O | > 3000 | > 3000 | > 3000 | > 3000 | 2650 | 94.7 | 101 | 75.5 | 85.5 | 83.9 | 70.8 | 76.5 | 88.5 | 96.1 | 63.2 | 92.5 | 98.4 | 80.7 | 85 | 122 | viability, T/C [5]: 118%; viability, T/C [6]: 112%; viability, T/C [11]: 77.7%; viability, T/C [12]: 80.8%; viability, T/C [17]: 124%; viability, T/C [18]: 86%; viability, T/C [22]: 102%; viability, T/C [23]: 60.4%; viability, T/C [24]: 100%; viability, T/C [25]: 62.8%; viability, T/C [26]: 88.9%; viability, T/C [27]: 74.5%; viability, T/C [28]: 132%; viability, T/C [29]: 98.5%; viability, T/C [30]: 45%
2 | Nc1ncn(C2CC(O)C(CO)S2)c(=O)n1 (stereo not given) + CC(CO)NC(=O)c1cc(-c2ccc(Cl)cc2)nn(-c2cnn(C)c2)c1=O | > 300 | 288 | > 300 | > 300 | > 300 | 65 | 76.6 | 80.2 | 85.5 | 70.8 | 104 | 65.7 | 49.2 | 78.5 | 118 | 43.9 | 89.8 | 75.6 | 76 | 72.2 | viability, T/C (second compound 0.1 µM, first compound 0.000949 µM): 65.6%; viability, T/C (second compound 0.1 µM, first compound 0.003 µM): 57.9%; viability, T/C (second compound 0.316 µM, first compound 0.000949 µM): 72.1%; viability, T/C (second compound 0.316 µM, first compound 0.003 µM): 112%; viability, T/C (second compound 1 µM, first compound 0.000949 µM): 69.9%; viability, T/C (second compound 1 µM, first compound 0.003 µM): 66.6%; viability, T/C (second compound 3.16 µM, first compound 0.000949 µM): 71%; viability, T/C (second compound 3.16 µM, first compound 0.003 µM): 80.3%; viability, T/C [22]: 92.9%; viability, T/C (second compound 10 µM, first compound 0.000949 µM): 67.4%; viability, T/C (second compound 10 µM, first compound 0.003 µM): 74.7%; viability, T/C [25]: 76.2%; viability, T/C [26]: 71.9%; viability, T/C [27]: 102%; viability, T/C [28]: 111%
3 | O=C(C=Cn1cnc(-c2cc(C(F)(F)F)cc(C(F)(F)F)c2)n1)NNc1cnccn1 + CC(CO)NC(=O)c1cc(-c2ccc(Cl)cc2)nn(-c2cnn(C)c2)c1=O | 155 | 351 | 187 | 180 | 165 | 93.7 | 78.1 | 56.8 | 40.4 | 109 | 79.4 | 71 | 50.1 | 60.4 | 76.3 | 65 | 37.2 | 65.1 | 61.9 | 71.2 | viability, T/C [5]: 34.5%; viability, T/C [6]: 29.7%; viability, T/C [11]: 37.8%; viability, T/C [12]: 37.2%; viability, T/C [17]: 46.8%; viability, T/C [18]: 34.5%; viability, T/C [22]: 32.4%; viability, T/C [23]: 50.3%; viability, T/C [24]: 29.1%; viability, T/C [25]: 72.3%; viability, T/C [26]: 46.9%; viability, T/C [27]: 75.3%; viability, T/C [28]: 34.1%; viability, T/C [29]: 37.5%; viability, T/C [30]: 24.9%
